PMC6940912, “Novel Drug-Like Somatostatin Receptor 4 Agonists are Potential Analgesics for Neuropathic Pain” (International Journal of Molecular Sciences, 2019)
One block for each compound: values may come before it.

Experiments:
sst4 receptor = biological target: T1, sst4 receptor (Homo sapiens, UniProt P31391); test: sst4 receptor-linked G-protein activation, [35S]GTPγS binding assay on membranes of sst4-expressing CHO cells; assay type: biochemical
T1 construct: expressed in transfected cells; host or cells: CHO cells
Experimental: Membrane fractions were prepared from CHO cells, which express the sst4 receptor, in Tris–ethylene glycol-bis(2-aminoethyl)tetraacetic acid (Tris–EGTA) buffer (50 mM Tris–HCl (Sigma, St. Louis, MO, USA), 1 mM EGTA (Sigma, St. Louis, MO, USA), 3 mM MgCl2 (Sigma, St. Louis, MO, USA), 100 mM NaCl (Sigma, St. Louis, MO, USA), pH 7.4, 10 μg of protein/sample). The fractions were incubated in the buffer containing 0.05 nM guanosine triphosphate (GTP) (BioChemica International Inc., Melbourne, Florida, USA), labeled on the gamma phosphate group with ^35S ([^35S]GTPγS) (Isotop Institute, Budapest, Hungary) and increasing concentrations (1 nM to 10 µM) of C1, C2, C3 and C4 compounds for 60 min at 30 °C, in the presence of 30 μM guanosine diphosphate (GDP) (Sigma, St. Louis, MO, USA). We determined the nonspecific binding in the presence of 10 μM unlabeled GTPγS and total binding in the absence of test compounds. Samples were filtrated through Whatman GF/B glass fiber filters using 48-well Slot Blot Manifold from Cleaver Scientific (Cleaver Scientific Ltd., Rugby, Warwickshire, United Kingdom). Filters were washed with ice-cold 50 mM Tris–HCl buffer (pH 7.4) and radioactivity was measured in a β-counter (PerkinElmer Inc., Waltham, MA, USA). The test-compound-induced G-protein activation was given as percentage over the specific [^35S]GTPγS binding detected in the absence of agonists.
In the sst4 receptor activation assay, all the compounds were dissolved in dimethyl sulfoxide (DMSO) (Szkarabeusz Ltd., Pécs, Hungary). The concentration of the stock solutions was 10 mM and was diluted with distilled water to reach the final concentrations. For the in vivo experiments, 1 mg of the compounds was rubbed dry in a braying mortar, suspended thoroughly in 1 mL 1.25% methylcellulose (MC) (Pharmacy of University of Pécs, Pécs, Hungary) solution and then dissolved in sterile bidistilled water to get a 1000 µg/mL stock solution freshly every experimental day. Most microsuspensions looked opalescent; they were shaken properly, sonicated, and further diluted with 1.25% MC to obtain the 25 µg/mL solution for oral administrations (0.2 mL/10 g body weight for the 500 µg/kg dose). The solutions were shaken and sonicated again directly before use. The vehicle was always 1.25% MC dissolved in sterile bidistilled water.

Male NMRI mice = test system: Male NMRI mice; design: method as in PMID 16697366, PMID 12122501; settings: 10–100 µg/kg i.p. ref 15, 27; cited from earlier work
[1] = design: method as in PMID 30232095; settings: native peptide ref 9; cited from earlier work

T1 sequence (P31391 whole entry): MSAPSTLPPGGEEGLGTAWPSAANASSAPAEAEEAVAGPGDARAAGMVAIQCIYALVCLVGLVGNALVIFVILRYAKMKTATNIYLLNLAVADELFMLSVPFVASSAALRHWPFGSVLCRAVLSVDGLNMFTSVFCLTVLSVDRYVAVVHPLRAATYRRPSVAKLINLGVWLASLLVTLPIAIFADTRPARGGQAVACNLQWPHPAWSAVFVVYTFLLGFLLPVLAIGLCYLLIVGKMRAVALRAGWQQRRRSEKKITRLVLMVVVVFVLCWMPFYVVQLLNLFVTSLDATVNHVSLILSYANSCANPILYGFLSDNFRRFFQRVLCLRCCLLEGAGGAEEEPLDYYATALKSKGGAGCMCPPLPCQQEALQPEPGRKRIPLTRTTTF

- EC50 (sst4 receptor; 1 nM to 10 µM, n = 3): 70 nM
- Emax (sst4 receptor; [35S]GTPγS binding, mean ± SEM, n = 3, read-out: Maximal activation over the basal activity of the receptor (efficacy)): 177%
Compound: COc1ccc(CNc2ncnc3c2c(C)c(C)n3Cc2ccccc2)cc1 [Compound 4, 4-Methoxy-benzyl-[7-benzyl-5,6-dimethyl-7H-pyrrolo[2,3-d]pyrimidin-4-yl]-amine]

Compound: Cc1ccc(S(=O)(=O)N[C@@H](CCN)C(=O)N[C@@H](Cc2ccccc2)C(N)=O)c2ccccc12 [Compound J-2156]
- Analgesic effect in partial sciatic nerve ligation model (Male NMRI mice): potent and dose-dependent analgesic effects

Compound: somatostatin: native peptide released from capsaicin-sensitive sensory nerve terminals
- Elimination half-life [1]: < 3 min
